Data from ChEMBL document CHEMBL1777772, “Synthesis and evaluation of heteroarylalanine diacids as potent and selective neutral endopeptidase inhibitors” (Bioorg Med Chem Lett, 2011).

Tests used:
[1] = target: Angiotensin-converting enzyme (Homo sapiens) (UniProt P12821)
Neprilysin = Neprilysin (Homo sapiens, UniProt P08473)
Description: Inhibition of neutral endopeptidase

[2] = Clearance in iv dosed rat; assay type: ADME, organism-based; settings: in vivo
[3] = Half life in iv dosed rat; assay type: ADME, organism-based; settings: in vivo
[4] = Oral bioavailability in rat; assay type: ADME, organism-based; settings: in vivo

Chain of Angiotensin-converting enzyme (Homo sapiens) (P12821 whole entry, looked up): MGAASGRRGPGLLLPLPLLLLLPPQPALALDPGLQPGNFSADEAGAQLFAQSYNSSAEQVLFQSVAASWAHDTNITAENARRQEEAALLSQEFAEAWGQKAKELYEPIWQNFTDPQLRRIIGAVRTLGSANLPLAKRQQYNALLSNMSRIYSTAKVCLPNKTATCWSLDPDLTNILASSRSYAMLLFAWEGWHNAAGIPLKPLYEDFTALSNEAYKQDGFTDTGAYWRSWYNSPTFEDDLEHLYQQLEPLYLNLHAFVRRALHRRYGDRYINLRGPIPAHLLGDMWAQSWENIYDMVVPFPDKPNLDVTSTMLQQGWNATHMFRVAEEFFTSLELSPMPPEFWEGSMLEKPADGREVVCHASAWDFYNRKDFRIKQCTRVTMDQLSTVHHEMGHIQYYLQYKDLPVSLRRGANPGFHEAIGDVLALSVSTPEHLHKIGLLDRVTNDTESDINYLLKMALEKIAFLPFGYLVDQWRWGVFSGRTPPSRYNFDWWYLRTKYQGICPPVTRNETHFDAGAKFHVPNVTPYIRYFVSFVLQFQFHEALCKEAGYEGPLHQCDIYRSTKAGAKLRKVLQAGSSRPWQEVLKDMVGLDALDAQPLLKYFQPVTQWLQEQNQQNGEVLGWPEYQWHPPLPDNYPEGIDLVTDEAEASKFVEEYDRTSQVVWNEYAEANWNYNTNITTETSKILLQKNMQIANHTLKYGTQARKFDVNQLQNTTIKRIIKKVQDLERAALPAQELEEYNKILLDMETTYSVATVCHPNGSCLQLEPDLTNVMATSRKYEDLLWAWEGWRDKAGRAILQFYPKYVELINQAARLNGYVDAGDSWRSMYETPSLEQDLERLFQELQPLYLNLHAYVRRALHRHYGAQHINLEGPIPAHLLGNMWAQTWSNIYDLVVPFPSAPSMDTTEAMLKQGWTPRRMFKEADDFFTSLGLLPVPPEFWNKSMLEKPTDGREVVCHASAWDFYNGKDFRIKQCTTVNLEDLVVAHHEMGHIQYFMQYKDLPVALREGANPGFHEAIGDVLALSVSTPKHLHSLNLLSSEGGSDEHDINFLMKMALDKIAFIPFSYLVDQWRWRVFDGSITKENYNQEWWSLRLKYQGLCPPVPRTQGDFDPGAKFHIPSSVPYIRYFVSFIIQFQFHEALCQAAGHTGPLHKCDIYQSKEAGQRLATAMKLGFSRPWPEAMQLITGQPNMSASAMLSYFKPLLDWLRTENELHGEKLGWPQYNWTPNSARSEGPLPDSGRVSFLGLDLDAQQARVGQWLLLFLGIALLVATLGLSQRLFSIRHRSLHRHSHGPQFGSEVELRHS
Chain of Neprilysin (P08473 whole entry): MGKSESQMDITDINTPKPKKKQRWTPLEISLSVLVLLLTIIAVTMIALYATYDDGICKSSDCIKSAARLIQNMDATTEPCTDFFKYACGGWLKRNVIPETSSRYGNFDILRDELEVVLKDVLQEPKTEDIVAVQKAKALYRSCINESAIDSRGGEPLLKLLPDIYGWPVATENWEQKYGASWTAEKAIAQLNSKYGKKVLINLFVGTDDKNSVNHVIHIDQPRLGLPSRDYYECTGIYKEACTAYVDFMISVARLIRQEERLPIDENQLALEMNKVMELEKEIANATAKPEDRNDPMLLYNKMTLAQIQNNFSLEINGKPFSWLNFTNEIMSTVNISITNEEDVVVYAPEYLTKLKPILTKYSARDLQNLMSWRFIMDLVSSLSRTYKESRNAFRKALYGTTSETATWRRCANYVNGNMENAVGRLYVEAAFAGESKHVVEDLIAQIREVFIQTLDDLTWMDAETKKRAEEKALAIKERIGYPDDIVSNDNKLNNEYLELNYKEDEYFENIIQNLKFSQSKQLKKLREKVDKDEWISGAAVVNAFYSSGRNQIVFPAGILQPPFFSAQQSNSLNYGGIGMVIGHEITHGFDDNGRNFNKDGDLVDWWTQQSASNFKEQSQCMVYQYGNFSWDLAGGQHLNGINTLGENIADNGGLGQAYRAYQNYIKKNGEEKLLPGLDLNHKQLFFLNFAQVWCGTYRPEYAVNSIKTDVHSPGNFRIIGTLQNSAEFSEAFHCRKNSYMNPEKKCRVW

Compound	IC50 [1]	IC50 (Neprilysin) [nM]	clearance [2] [mL/min/kg]	half-life [3] [h]	bioavailability [4] [%]
CC(C)CC[C@H](N[C@@H](CCc1ccccc1)C(=O)O)C(=O)N[C@@H](Cc1ccc(-c2ccccc2)cc1)C(=O)O	1.5 nM	28			
CCC[C@H](NC1(C(=O)N[C@@H](Cc2nc(CC)co2)C(=O)O)CCCC1)C(=O)O	130 nM	22			
CCC[C@H](NC1(C(=O)N[C@@H](Cc2nc(CC(C)C)co2)C(=O)O)CCCC1)C(=O)O	75 nM	20			
CCC[C@H](NC1(C(=O)N[C@@H](Cc2nc(-c3ccccc3)co2)C(=O)O)CCCC1)C(=O)O	25 nM				
CCC[C@H](NC1(C(=O)N[C@@H](Cc2ncc(-c3ccccc3)o2)C(=O)O)CCCC1)C(=O)O	82 nM				
COCC[C@H](NC1(C(=O)N[C@@H](Cc2nc(-c3ccccc3)co2)C(=O)O)CCCC1)C(=O)O	130 nM				
COCC[C@H](NC1(C(=O)N[C@@H](Cc2ncc(-c3ccccc3)o2)C(=O)O)CCCC1)C(=O)O	270 nM		4.8	2.1	1.7
COCC[C@H](NC1(C(=O)N[C@@H](Cc2nc(C)c(-c3ccccc3)o2)C(=O)O)CCCC1)C(=O)O	210 nM				
COCC[C@H](NC1(C(=O)N[C@@H](Cc2ncc(-c3ccc(Cl)cc3)o2)C(=O)O)CCCC1)C(=O)O	195 nM	0.3			
COCC[C@H](NC1(C(=O)N[C@@H](Cc2nnc(-c3ccccc3)o2)C(=O)O)CCCC1)C(=O)O	> 3000 nM	6			
COCC[C@H](NC1(C(=O)N[C@@H](Cc2nc(-c3ccccc3)no2)C(=O)O)CCCC1)C(=O)O	58 nM	1.9			
COCCOC[C@H](CC1(C(=O)N[C@H]2CC[C@@H](C(=O)O)CC2)CCCC1)C(=O)O [CANDOXATRILAT]	Not Active	7.8			
CS(=O)(=O)N[C@@H](CCCCN)C(=O)NC[C@H](CC1(C(=O)N[C@@H](Cc2ccc(O)cc2)C(=O)O)CCCC1)C(=O)O [SAMPATRILAT]	3.4 nM	0.6			
